Laboratory results from ChEMBL document CHEMBL1130751, “Synthesis and 5 alpha-reductase inhibitory activity of 8-substituted benzo[f]quinolinones derived from palladium mediated coupling reactions” (Bioorg Med Chem Lett, 1998).

Columns and labels:
[1] = molecular target: T1, 3-oxo-5-alpha-steroid 4-dehydrogenase 2 (Homo sapiens, UniProt P31213); assay: Inhibitory activity against Steroid 5-alpha-reductase type 2 as [3H]T to [3H]-DHT conversion human prostate nuclear membrane; format: tissue-based, Prostate gland
T1 sequence (P31213 whole entry): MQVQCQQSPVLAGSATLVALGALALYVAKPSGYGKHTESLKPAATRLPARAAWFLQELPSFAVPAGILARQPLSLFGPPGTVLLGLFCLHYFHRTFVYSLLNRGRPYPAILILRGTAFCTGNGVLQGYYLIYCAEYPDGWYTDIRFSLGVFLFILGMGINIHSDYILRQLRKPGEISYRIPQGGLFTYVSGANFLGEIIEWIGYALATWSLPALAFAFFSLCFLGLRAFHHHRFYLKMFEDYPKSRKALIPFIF

[2] = molecular target: T2, 3-oxo-5-alpha-steroid 4-dehydrogenase 1 (Homo sapiens, UniProt P18405); assay: Inhibitory activity against Steroid 5-alpha-reductase type I enzyme based on the conversion of [3H]-T to [3H]DHT in nuclear membrane preparations from human scalp; format: cell membranes
T2 sequence (P18405 whole entry): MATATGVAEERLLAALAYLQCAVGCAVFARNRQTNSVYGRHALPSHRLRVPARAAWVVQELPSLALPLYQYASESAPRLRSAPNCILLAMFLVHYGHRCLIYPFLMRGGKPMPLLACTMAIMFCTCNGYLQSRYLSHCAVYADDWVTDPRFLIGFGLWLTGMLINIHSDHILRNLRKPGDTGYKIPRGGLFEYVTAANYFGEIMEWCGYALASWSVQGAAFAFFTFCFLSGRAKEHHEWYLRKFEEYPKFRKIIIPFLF

[3] = molecular target: T2, 3-oxo-5-alpha-steroid 4-dehydrogenase 1; assay: Inhibitory activity against Steroid 5-alpha-reductase type 1 enzyme based on the conversion of [3H]T to [3H]-DHT in nuclear membrane preparations from human scalp; format: cell membranes

IC50 [1] [nM] | IC50 [2] [nM] | IC50 [3] [nM] | SMILES
52 | 21 | – | CN1C(=O)CC[C@]2(C)c3ccc(C#Cc4ccccc4)cc3CC[C@@H]12
870 | – | – | CN1C(=O)CC[C@]2(C)c3ccc(CC(=O)O)cc3CC[C@@H]12
> 10000 | – | > 10000 | CN1C(=O)CC[C@]2(C)c3ccc(CC(N)=O)cc3CC[C@@H]12
1400 | 6 | – | CN1C(=O)CC[C@]2(C)c3ccc(/C=C\c4ccccc4)cc3CC[C@@H]12
> 10000 | – | > 10000 | CCN(CC)C(=O)Cc1ccc2c(c1)CC[C@H]1N(C)C(=O)CC[C@]21C
320 | – | 3.4 | CN1C(=O)CC[C@]2(C)c3ccc(/C=C/c4cnc5ccccc5c4)cc3CC[C@@H]12
> 10000 | – | 59 | CN1C(=O)CC[C@]2(C)c3ccc(-c4ccco4)cc3CC[C@@H]12
180 | 23 | – | CN1C(=O)CC[C@]2(C)c3ccc(/C=C/c4ccccc4)cc3CC[C@@H]12
520 | – | > 10000 | CN1C(=O)CC[C@]2(C)c3ccc(CC(=O)Nc4ccccc4)cc3CC[C@@H]12
1340 | – | 63 | CN1C(=O)CC[C@]2(C)c3ccc(/C=C/c4cncc5ccccc45)cc3CC[C@@H]12
550 | – | 32 | CN1C(=O)CC[C@]2(C)c3ccc(/C=C/c4ccc5ccccc5n4)cc3CC[C@@H]12
> 10000 | – | > 10000 | CN1C(=O)CC[C@]2(C)c3ccc(-c4cccs4)cc3CC[C@@H]12
> 10000 | – | > 10000 | CN1C(=O)CC[C@]2(C)c3ccc(CC(=O)NC(C)(C)C)cc3CC[C@@H]12
